US20120016014A1, “BENZOTHIOPHENE CARBOXAMIDE COMPOUNDS, COMPOSITION AND APPLICATIONS THEREOF” (INDIAN INSTITUTE OF SCIENCE, priority 2010, published 2012)
Several values for one entry are separate records, joined by “and”; a condition that tells them apart may be missing. Identical values can stand only once. Like-named read-outs stand apart in the source and are kept apart here. Values belong to the compound of their own block, whether it stands above or below them.

Experiments:
[1] = system: blood-stage P. berghei ANKA; experiment: Experimental cerebral malaria in C57BL/6 mice; format: in vivo; conditions: for Relative efficacy in the route of administration study: 5 mg/kg body weight, 6 days treatment; for Mean Survival Days (Observed for 25 days): 5 mg/kg body weight daily for six days, C57BL/6 mice
Procedure: C57BL/6 mice were infected with blood-stage P. berghei ANKA as discussed in the experimental section. After 24 hours of infection mice were treated intravenously with various doses of inhibitors. It was observed that all control mice developed hypothermia by day 2, ataxia and convulsions by day 3 and died by day 6, whereas inhibitor treated groups had considerably higher longevity (11-24 days). Though each group of mice developed hypothermia by day 4, convulsions and ataxia development were delayed in case of treated mice. […] The mice treated with 2.5 mg/kg body weight survived for 18 days. Even at or below 1 mg/kg body weight of inhibitor dose, the mice survived for 11 days, but paralysis and ataxia development occurred on Day 7.
[…]. The mice were treated for 6 days. […]. Chloroquine was used as the control drug. […].
Therefore, compounds 10 and 11 were also administered at 5 mg/Kg body weight. The compounds were administered through intraperitoneal, peroral, subcutaneous and intravenous routes. Compound 10 and 11 were administered once daily for 6 days. […]. The mean survival days for this treatment group was 16 (FIG. 12c and Table III). […]. Chloroquine was used as the control drug.

[2] = system: Plasmodium falciparum 3D7; experiment: In vitro inhibition of P. falciparum 3D7 blood-stage parasites; format: cell-based; conditions: for IC50: read-out: P. falciparum (IC50 μM); for Stage of parasite growth arrest / Parasites observed to be dead: 2.5 μM; for Stage of parasite growth arrest: added at ring stage, P. falciparum 3D7; for Parasites observed to be dead: synchronised ring stage culture of P. falciparum 3D7
Procedure: Benzothiophene carboxamide derivatives of the present invention were checked for their anti-parasitic activity against 3D7 (chloroquine sensitive strain) in an in vitro culture. […] To find out parasite stage where these compounds act, synchronised ring stage culture of P. falciparum was treated with 2.5 μM concentration of compounds 6 and 7. […] When compounds 6 and 7 were added at the trophozoite stage the cells could not proceed to the schizont stage indicating the growth inhibition occurs at trophozoite stage.
Synchronised culture of P. falciparum 3D7 was treated with 2.5 μM compound 10 and 11 at the ring stage.

purified PfENR [3] = target: T1, purified PfENR (Plasmodium falciparum, UniProt Q9BH77); experiment: PfENR inhibition, standard enzyme assay; format: biochemical
T1 sequence (Q9BH77 22-432): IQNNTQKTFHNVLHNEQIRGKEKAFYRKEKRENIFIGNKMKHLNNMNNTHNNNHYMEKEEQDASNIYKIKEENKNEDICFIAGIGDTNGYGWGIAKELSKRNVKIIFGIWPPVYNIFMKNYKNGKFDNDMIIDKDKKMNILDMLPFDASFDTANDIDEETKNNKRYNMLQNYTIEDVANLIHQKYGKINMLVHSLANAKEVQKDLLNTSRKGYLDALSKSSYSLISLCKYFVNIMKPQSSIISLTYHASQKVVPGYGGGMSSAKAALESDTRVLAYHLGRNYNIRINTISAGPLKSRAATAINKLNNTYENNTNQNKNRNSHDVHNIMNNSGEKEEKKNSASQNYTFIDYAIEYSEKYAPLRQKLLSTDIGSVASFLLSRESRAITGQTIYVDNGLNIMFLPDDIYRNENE
Procedure: (§1) PfENR activity was determined using standard assay described earlier.

Tail flick latency test = conditions: 15 mg/kg b. wt. vs Ibuprofen 50 mg/kg b. wt., 30 min and 60 min post injection
Procedure: Hot plate latency test was performed under red light on the metal surface of hot plate analgesia meter (IITC, Life science, CA). Animals were placed individually on the surface of hot plate maintained at a constant temperature 54±1° C. The anti-nociceptive response was latency recorded from the time when animal was placed on the heated surface until the behavior response show licking of hind paw to avoid thermal nociception. A maximum hot plate latency of 30 sec was used for each animal to prevent paw tissue damage. Base line nociceptive latency was obtained for each animal prior to any drug administration. Thereafter, groups of animals were treated with different concentration of different derivatives of benzothiophene and well known NSAIDs. […] Subsequent nociceptive response latency for each animal was determined at 30 and 60 min after drug administration. […] In continuation of tail flick latency assay, the anti-nociceptive effect of the compounds was monitored. Rats treated as described above were subjected to determination of thermal nociceptive pain. Rats were confined in restrainer and allowed to accommodate. The tail withdrawal test consisted of immersing the posterior 8-10 cm of the tail in hot water bath maintained at 54±1° C. Withdrawal latency for tail flicking was measured. A maximum tail flick latency of 20 sec was permitted to minimize tissue damage.

[4] = Hot plate latency test (thermal hyperalgesia); format: in vivo, rats; conditions: for Analgesic activity compared with Ibuprofen, hot plate: compounds 15 mg/kg b. wt. vs Ibuprofen 50 mg/kg b. wt.; for MPE index, hot plate latency assay: 15 mg/kg b. wt. i.p., 30 and 60 min; for Anti-nociceptive response, hot plate latency assay: known NSAIDs
Procedure: The animals were housed in an animal house facility of National Institute of Immunology, India, with controlled temperature (22±2° C.) under a 12/12 h light/dark cycle. They had free access to food and water ad libitum. All experiments were conducted according to the guidelines of the international association for the study of pain and approved by the institutional ethical committee for animal research. All in vivo experiments were carried out on inbred male […] rats ( 200-320 g body weight). Same age and equal body weight of animals were used according to experiments. No animals were used for more than one experiment. Most popular non-steroidal anti-inflammatory drugs which are widely use for treatment of chronic and inflammatory pain, such as Ibuprofen, Naproxen, Ketoprofen, Aspirin, Nimesulide, Indomethacine were purchased from Cayman Chemicals, USA and used to evaluate the efficacy of drugs in animal model. These drugs and different derivatives of Benzothiophene were dissolved in minimum volume of Dimethyl sulfoxide (DMSO) and further diluted in Phosphate buffer saline prior to use. […] Withdrawal latency for tail flicking was measured. […] NSAIDs is commonly evaluated by hot plate latency assay whereby animals are exposed to thermal stimulus (54 degree […] time for hind paw licking is measured as behavioural response for pain.

[5] = Mechanical hyperalgesia, Randall-Selitto, carrageenan induced; format: in vivo, rats; conditions: 15 mg/kg b wt., after 1 hrs, basal level in 5 hrs
Procedure: Mechanical hyperalgesia was measured as hind limb withdrawal threshold in response to a mechanical stimulus applied to hind paws of rat using Randall-selitto meter, Randall and Selitto, 1957. To determine the mechanical hyperalgesia, the force was applied with increased pressure at a constant rate until the animal withdrew its limb. The base line nociceptive threshold was measured before induction of hyperalgesia. Moreover, hyperalgesia was induced by carrageenan and then groups of animal were treated with compound 4, compound 6 and compound 8 (15 mg/kg body weight) and Ibuprofen (50 mg/kg body weight). Control group was treated with physiological saline. […] The anti-nociceptive efficacy of the compounds has been evaluated the efficacy with paw withdrawal threshold latency of animals.

purified PfENR [6] = target: T1, purified PfENR; experiment: PfENR inhibition kinetics, cofactor potency and progress curve analysis; format: biochemical
Procedure: as §1
The accumulation of product further decreased when compound 6 was preincubated with the enzyme (curve c). On addition of NAD+ to this reaction the rate of product accumulation further decreased (curve d).
Progress curves for inhibition by varying concentrations of compounds 6 and 7 were examined in detail (FIGS. 16a and 16b). From the progress curve analyses, it was inferred that for each concentration of the inhibitors the initial and the steady state velocity decreased exponentially with time. At higher inhibitor concentration, steady state is reached rapidly with a decrease in steady state velocity (vs). […] Progress curves were analysed using equation 3a from which a series of Kobs values were obtained for each concentration of inhibitor.

[7] = system: liver stage of Plasmodium; conditions: Singh A. P. et al, IUBMB life 61, 923-928; read-out: IC50, inhibition of liver stage parasite development before invasion; cited from earlier work
[8] = Erythrocyte, growth inhibition, red blood cell stages of Plasmodium falciparum 3D7 (chloroquine sensitive)
[9] = read-out: Inhibition of PfENR (IC50 μM)
[10] = Plasmodium falciparum, 3D7, Erythrocyte

SMILES: CCN(CC)CCCC(C)Nc1ccnc2cc(Cl)ccc12 (centres unmarked) [Chloroquine, reference compound]
Relative efficacy in the route of administration study [1]: more effective via intravenous and subcutaneous routes compared to oral administration
Mean Survival Days (Observed for 25 days) ([1]; Intraperitoneal): 20 ± 1.5 days
Mean Survival Days (Observed for 25 days) ([1]; Intravenous): 25 ± 2.1 days
Mean Survival Days (Observed for 25 days) ([1]; Per oral): 17 ± 1.4 days
Mean Survival Days (Observed for 25 days) ([1]; Subcutaneous): 21 ± 1.7 days

IC50 [2, 8]: 2.1 ± 0.4 µM
IC50 (purified PfENR [3]; [9]): 1.68 ± 0.045 µM
SMILES: O=C(O)c1sc2ccccc2c1Br [Compound 1]

IC50 [2, 8]: 2 ± 0.5 µM
melting point: 115 to 117 °C
IC50 (purified PfENR [3]; [9]): 0.51 µM and 0.501 µM
SMILES: O=C(NCc1ccccc1)c1sc2ccccc2c1Br [Compound 4, N-benzyl-3-bromobenzo[b]thiophene-2-carboxamide]
Anti-nociceptive response, tail flick latency assay (Tail flick latency test): better anti-nociceptive response than the Ibuprofen
Analgesic activity compared with Ibuprofen, hot plate [4]: potent analgesic activity at much lower concentration than Ibuprofen
Mechanical hyperalgesia, paw withdrawal threshold [5]: significantly reversed the mechanical hyperalgesia

IC50 [2, 8]: 5.93 ± 0.3 µM
IC50 (purified PfENR [3]; [9]): 31.99 ± 0.23 µM
SMILES: COc1ccc(CNC(=O)c2sc3ccccc3c2Br)cc1 [Compound 5, N-(4-methoxybezyl)-3-bromobenzo[b]thiophene-2-carboxamide]

SMILES: O=C(NCc1ccc(C(F)(F)F)cc1)c1sc2ccccc2c1Br [Compound 7, N-(4-trifluorobenzyl)-3-bromobenzo[b]thiophene-2-carboxamide]
Relative efficacy in the route of administration study [1]: comparative activity to compound 6
Mean Survival Days (Observed for 25 days) ([1]; Intraperitoneal): 21 ± 1.3 days
Mean Survival Days (Observed for 25 days) ([1]; Intravenous): 24 ± 2.1 days
Mean Survival Days (Observed for 25 days) ([1]; Per oral): 11 ± 0.9 days
Mean Survival Days (Observed for 25 days) ([1]; Subcutaneous): 15 ± 1.2 days
Anti-nociceptive response, tail flick latency assay (Tail flick latency test): better anti-nociceptive response than the Ibuprofen
Ki (purified PfENR [6]): 86.1 nM
Binding behaviour from progress curves (purified PfENR [6]; inhibitor 0-750 nM): slow tight binding behaviour
Isomerization rate constant (k5 * 10^−2) (s^−1) (purified PfENR [6]; purified PfENR, progress curves): 1.65 ± .023 10^−2 s^−1
koff (purified PfENR [6]; read-out: Dissociation rate constant (k6* 10^−3) (s^−1)): 0.0069 ± 3e-07 s⁻¹
Stage of parasite growth arrest [2]: arrested at the trophozoite stage
Parasites observed to be dead [2]: ~90%
IC50 [2, 10]: 1.18 ± 0.2 µM
IC50 (purified PfENR [3]; Inhibition of PfENR (IC50 μM)): 0.463 ± 0.1 µM

IC50 [2, 8]: 2.46 ± 0.7 µM
IC50 (purified PfENR [3]; [9]): 54.98 ± 0.42 µM
SMILES: O=C(NCCc1ccccc1)c1sc2ccccc2c1Br [Compound 8, 3-bromo-N-(2-phenylethyl)-benzo[b]thiophene-2-carboxamide]
Anti-nociceptive response, tail flick latency assay (Tail flick latency test): better anti-nociceptive response than the Ibuprofen
Analgesic activity compared with Ibuprofen, hot plate [4]: potent analgesic activity at much lower concentration than Ibuprofen
Mechanical hyperalgesia, paw withdrawal threshold [5]: significantly reversed the mechanical hyperalgesia

IC50 [2, 8]: 2.45 ± 0.9 µM
IC50 (purified PfENR [3]; [9]): 52.56 ± 0.33 µM
SMILES: O=C(NCc1cccc2ccccc12)c1sc2ccccc2c1Br [Compound 9, 3-bromo-N-(naphthalen-1-ylmethyl)-benzo[b]thiophene-2-carboxamide]
Anti-nociceptive response, tail flick latency assay (Tail flick latency test): better anti-nociceptive response than the Ibuprofen

SMILES: C=CCN(Cc1ccc(F)cc1)C(=O)c1sc2ccccc2c1Br [Compound 10, 3-bromo-N-(4-fluorobenzyl)-N-(prop-2-en-1-yl)-benzo[b]thiophene-2-carboxamide]
Mean Survival Days (Observed for 25 days) ([1]; Intraperitoneal): 11 ± 0.8 days
Mean Survival Days (Observed for 25 days) ([1]; Intravenous, 5 mg/kg): 15 days and 15 ± 0.7 days
Mean Survival Days (Observed for 25 days) ([1]; Per oral): 7 ± 1.2 days
Mean Survival Days (Observed for 25 days) ([1]; Subcutaneous): 12 ± 1.6 days
MPE index, hot plate latency assay [4]: less latency in comparison to other derivatives
Stage of parasite growth arrest [2]: arrested after 48 hours at the trophozoite stage
Parasites observed to be dead [2]: 40%
IC50 [2, 8]: 2.93 ± 1.2 µM
IC50 (purified PfENR [3]; [9]): 51.98 ± 0.43 µM

SMILES: C=CCN(Cc1ccc(C(F)(F)F)cc1)C(=O)c1sc2ccccc2c1Br [Compound 11, 3-bromo-N-(prop-2-en-1-yl)-N-[4-(trifluoromethyl)benzyl]-1-benzo[b]thiophene-2-carboxamide]
Mean Survival Days (Observed for 25 days) ([1]; Intraperitoneal, 5 mg/kg): 10 ± 1.2 days
Mean Survival Days (Observed for 25 days) ([1]; Intraperitoneal, listed as compound 11, 5 mg/kg): 10 days
Mean Survival Days (Observed for 25 days) ([1]; Intravenous, 5 mg/kg): 16 ± 1.5 days
Mean Survival Days (Observed for 25 days) ([1]; Intravenous, listed as compound 11, 5 mg/kg): 16 days
Mean Survival Days (Observed for 25 days) ([1]; Per oral): 7 ± .6 days
Mean Survival Days (Observed for 25 days) ([1]; Subcutaneous, 5 mg/kg): 14 ± 1.2 days
Mean Survival Days (Observed for 25 days) ([1]; Subcutaneous, listed as compound 11, 5 mg/kg): 14 days
MPE index, hot plate latency assay [4]: less latency in comparison to other derivatives
Stage of parasite growth arrest [2]: arrested after 48 hours at the trophozoite stage
Parasites observed to be dead [2]: around 70%
IC50 [2, 8]: 1.3 ± 0.1 µM
IC50 (purified PfENR [3]; [9]): 52.48 ± 0.22 µM

SMILES: CC(C)Cc1ccc(C(C)C(=O)O)cc1 (centres unmarked) [Ibuprofen, reference compound]
Anti-nociceptive response, hot plate latency assay ([4]; 50 mg/kg b. wt., 60 minutes post administration): better anti-nociceptive effect compared to other NSAIDs
Anti-nociceptive response, hot plate latency assay ([4]; 30 minutes post administration, wistar rats): better anti-nociceptive drug as compared to other NSAIDs

SMILES: Oc1cc(Cl)ccc1Oc1ccc(Cl)cc1Cl [Triclosan, reference compound]
IC50 [7]: 6800 nM
IC50 [2, 10]: 0.8 ± 0.1 µM
